{
  "source": "patent US6613766B1",
  "about": "“Pentaaza-cyclopental[a]naphthalene derivatives as ligands for GABAa α5 receptors” (Merck Sharp & Dohme Ltd., priority 1998, dated 2003)",
  "data": [
    {"molecule": "Cc1cc(-c2nnc3c4cccnc4c(OCc4ncnn4C)nn23)no1", "note": "[Example 4, 3-(5-Methylisoxazol-3-yl)-5-(2-methyl-1,2,4-triazol-3-ylmethyloxy)-1,2,3a,4,6-pentaaza-cyclopenta[a]naphthalene]", "values": [
      {"measurement": "melting point", "value": "255 to 257", "unit": "°C"}
    ]}
  ]
}
